Test results as given in patent US10597388B2, “Pyridazinone herbicides” (FMC CORPORATION, priority 2014, dated 2020).

How the values were obtained:
Assay in all cases: Test D controlled growth environment herbicide test, pre- and postemergence
Format in all cases: in vivo
[1] = system: barley, winter (winter barley, Hordeum vulgare)
Source text: (§1) Seeds of plant species selected from bluegrass (annual bluegrass, Poa annua), blackgrass (Alopecurus myosuroides), Canada thistle (Cirsium arvense), canarygrass (Phalaris minor), chickweed (common chickweed, Stellaria media), geranium, cutleaf (cutleaf geranium, Geranium dissectum), galium (catchweed bedstraw, Galium aparine), bromegrass, downy (downy bromegrass, Bromus tectorum), field poppy (Papaver rhoeas), field violet (Viola arvensis), foxtail, green (green foxtail, Setaria viridis), deadnettle (henbit deadnettle, Lamium amplexicaule), ryegrass, Italian (Italian ryegrass, Lolium multiflorum), kochia (Kochia scoparia), lambsquarters (Chenopodium album), oilseed rape (Brassica napus), pigweed (Amaranthus retroflexus), chamomile (scentless chamomile, Matricaria inodora), Russian thistle (Salsola kali), speedwell (bird's-eye speedwell, Veronica persica), barley, spring (spring barley, Hordeum vulgare), wheat, spring (spring wheat, Triticum aestivum), buckwheat, wild (wild buckwheat, Polygonum convolvulus), mustard, wild (wild mustard, Sinapis arvensis), oat, wild (wild oat, Avena fatua), radish, wild (wild radish, Raphanus raphanistrum), windgrass (Apera spica-venti), barley, winter (winter barley, Hordeum vulgare), and wheat, winter (winter wheat, Triticum aestivum) were planted into a silt loam soil and treated preemergence with test chemicals formulated in a non-phytotoxic solvent mixture which included a surfactant.
(§2) At the same time, these species were planted in pots containing Redi-Earth® planting medium (Scotts Company, 14111 Scottslawn Road, Marysville, Ohio 43041) comprising spaghnum peat moss, vermiculite, wetting agent and starter nutrients and treated with postemergence applications of the test chemicals formulated in the same manner. Plants ranged in height from 2 to 18 cm (1- to 4-leaf stage). Treated plants and controls were maintained in a controlled growth environment for 14 to 21 d after which time all species were compared to controls and visually evaluated. Plant response ratings, summarized in Table D, are based on a scale of 0 to 100 where 0 is no effect and 100 is complete control. A dash (-) response means no test result.

[2] = system: blackgrass (Alopecurus myosuroides)
Source text: as §1, §2

[3] = system: chamomile (scentless chamomile, Matricaria inodora)
Source text: as §1, §2

[4] = system: deadnettle (henbit deadnettle, Lamium amplexicaule)
Source text: as §1, §2

[5] = system: field poppy (Papaver rhoeas)
Source text: as §1, §2

[6] = system: foxtail, green (green foxtail, Setaria viridis)
Source text: as §1, §2

[7] = system: lambsquarters (Chenopodium album)
Source text: as §1, §2

[8] = system: mustard, wild (wild mustard, Sinapis arvensis)
Source text: as §1, §2

[9] = system: radish, wild (wild radish, Raphanus raphanistrum)
Source text: as §1, §2

[10] = system: windgrass (Apera spica-venti)
Source text: as §1, §2

[11] = Postemergence, 31 g ai/ha, scale 0 to 100 (0 no effect, 100 complete control)
[12] = Postemergence, 125 g ai/ha, visual rating on scale 0 (no effect) to 100 (complete control), 14 to 21 d
[13] = Postemergence, 250 g ai/ha, scale 0 to 100 (0 no effect, 100 complete control)
[14] = Preemergence, 62 g ai/ha, scale 0 to 100 (0 no effect, 100 complete control)
[15] = Preemergence, 125 g ai/ha, scale 0 to 100 (0 no effect, 100 complete control)
[16] = Preemergence, 250 g ai/ha, scale 0 to 100, 0 no effect, 100 complete control
[17] = postemergence, 62 g ai/ha, scale 0 to 100, 0 no effect, 100 complete control

SMILES: Cc1nn(C)c(=O)c(-c2c(C)sc3c(C)cc(Cl)cc23)c1O [Compound 35]
- Plant response rating, Barley, Winter [1, 11]: 0
- Plant response rating, Barley, Winter [1, 12]: 0
- Plant response rating, Barley, Winter [1, 13]: 15
- Plant response rating (scale of 0 to 100), Barley, Winter ([1]; Preemergence, 31 g ai/ha): 0
- Plant response rating, Barley, Winter [1, 14]: 0
- Plant response rating, Barley, Winter [1, 15]: 0
- Barley, Winter plant response rating [1, 16]: 0
- Plant response rating, Barley, Winter [1, 17]: 0
- Blackgrass plant response rating [2, 11]: 30
- Plant response rating, Blackgrass [2, 12]: 75
- Plant response rating, Blackgrass [2, 13]: 85
- Plant response rating (scale of 0 to 100), Blackgrass ([2]; Preemergence, 31 g ai/ha): 75
- Plant response rating, Blackgrass [2, 14]: 85
- Plant response rating, Blackgrass [2, 15]: 85
- Blackgrass plant response rating [2, 16]: 95
- Plant response rating, Blackgrass [2, 17]: 65
- Chamomile plant response rating [3, 11]: 100
- Plant response rating, Chamomile [3, 12]: 100
- Plant response rating, Chamomile [3, 13]: 100
- Plant response rating (scale of 0 to 100), Chamomile ([3]; Preemergence, 31 g ai/ha): 100
- Plant response rating, Chamomile [3, 14]: 100
- Plant response rating, Chamomile [3, 15]: 100
- Plant response rating, Chamomile [3, 16]: 100
- Plant response rating, Chamomile [3, 17]: 100
- Deadnettle plant response rating [4, 11]: 15
- Plant response rating, Deadnettle [4, 12]: 20
- Plant response rating, Deadnettle [4, 13]: 80
- Plant response rating (scale of 0 to 100), Deadnettle ([4]; Preemergence, 31 g ai/ha): 0
- Plant response rating, Deadnettle [4, 14]: 15
- Plant response rating, Deadnettle [4, 15]: 55
- Plant response rating, Deadnettle [4, 16]: 80
- Plant response rating, Deadnettle [4, 17]: 20
- Field Poppy plant response rating [5, 11]: 100
- Plant response rating, Field Poppy [5, 12]: 100
- Plant response rating, Field Poppy [5, 13]: 100
- Plant response rating (scale of 0 to 100), Field Poppy ([5]; Preemergence, 31 g ai/ha): 75
- Plant response rating, Field Poppy [5, 14]: 85
- Plant response rating, Field Poppy [5, 15]: 100
- Plant response rating, Field Poppy [5, 16]: 100
- Plant response rating, Field Poppy [5, 17]: 100
- Foxtail, Green plant response rating [6, 11]: 75
- Plant response rating, Foxtail, Green [6, 12]: 95
- Plant response rating, Foxtail, Green [6, 13]: 95
- Plant response rating (scale of 0 to 100), Foxtail, Green ([6]; Preemergence, 31 g ai/ha): 50
- Plant response rating, Foxtail, Green [6, 14]: 45
- Plant response rating, Foxtail, Green [6, 15]: 65
- Plant response rating, Foxtail, Green [6, 16]: 100
- Plant response rating, Foxtail, Green [6, 17]: 90
- Lambsquarters plant response rating [7, 11]: 75
- Plant response rating, Lambsquarters [7, 12]: 98
- Plant response rating, Lambsquarters [7, 13]: 98
- Plant response rating (scale of 0 to 100), Lambsquarters ([7]; Preemergence, 31 g ai/ha): 70
- Plant response rating, Lambsquarters [7, 14]: 98
- Plant response rating, Lambsquarters [7, 15]: 100
- Plant response rating, Lambsquarters [7, 16]: 100
- Plant response rating, Lambsquarters [7, 17]: 100
- Mustard, Wild plant response rating [8, 11]: 98
- Plant response rating, Mustard, Wild [8, 12]: 100
- Plant response rating, Mustard, Wild [8, 13]: 100
- Plant response rating (scale of 0 to 100), Mustard, Wild ([8]; Preemergence, 31 g ai/ha): 85
- Plant response rating, Mustard, Wild [8, 14]: 100
- Plant response rating, Mustard, Wild [8, 15]: 100
- Plant response rating, Mustard, Wild [8, 16]: 100
- Plant response rating, Mustard, Wild [8, 17]: 100
- Radish, Wild plant response rating [9, 11]: 85
- Plant response rating, Radish, Wild [9, 12]: 100
- Plant response rating, Radish, Wild [9, 13]: 100
- Plant response rating (scale of 0 to 100), Radish, Wild ([9]; Preemergence, 31 g ai/ha): 35
- Plant response rating, Radish, Wild [9, 14]: 100
- Plant response rating, Radish, Wild [9, 15]: 100
- Plant response rating, Radish, Wild [9, 16]: 100
- Plant response rating, Radish, Wild [9, 17]: 100
- Windgrass plant response rating [10, 11]: 25
- Plant response rating, Windgrass [10, 12]: 70
- Plant response rating, Windgrass [10, 13]: 85
- Plant response rating (scale of 0 to 100), Windgrass ([10]; Preemergence, 31 g ai/ha): 25
- Plant response rating, Windgrass [10, 14]: 95
- Plant response rating, Windgrass [10, 15]: 100
- Plant response rating, Windgrass [10, 16]: 100
- Plant response rating, Windgrass [10, 17]: 65

SMILES: Cc1ccc2ccccc2c1-c1c(O)c(Br)nn(C)c1=O [Compound 23]
- Plant response rating, Barley, Winter [1, 12]: 25
- Plant response rating, Barley, Winter [1, 13]: 30
- Plant response rating, Barley, Winter [1, 17]: 15
- Plant response rating, Blackgrass [2, 12]: 75
- Plant response rating, Blackgrass [2, 13]: 80
- Plant response rating, Blackgrass [2, 17]: 70
- Plant response rating, Chamomile [3, 12]: 85
- Plant response rating, Chamomile [3, 13]: 100
- Plant response rating, Chamomile [3, 17]: 85
- Plant response rating, Deadnettle [4, 12]: 75
- Plant response rating, Deadnettle [4, 13]: 85
- Plant response rating, Deadnettle [4, 17]: 65
- Plant response rating, Field Poppy [5, 12]: 100
- Plant response rating, Field Poppy [5, 13]: 100
- Plant response rating, Field Poppy [5, 17]: 100
- Plant response rating, Foxtail, Green [6, 12]: 80
- Plant response rating, Foxtail, Green [6, 13]: 90
- Plant response rating, Foxtail, Green [6, 17]: 75
- Plant response rating, Lambsquarters [7, 12]: 75
- Plant response rating, Lambsquarters [7, 13]: 80
- Plant response rating, Lambsquarters [7, 17]: 75
- Plant response rating, Mustard, Wild [8, 12]: 100
- Plant response rating, Mustard, Wild [8, 13]: 100
- Plant response rating, Mustard, Wild [8, 17]: 95
- Plant response rating, Radish, Wild [9, 12]: 100
- Plant response rating, Radish, Wild [9, 13]: 100
- Plant response rating, Radish, Wild [9, 17]: 75
- Plant response rating, Windgrass [10, 12]: 75
- Plant response rating, Windgrass [10, 13]: 85
- Plant response rating, Windgrass [10, 17]: 70
